Biological target: T1, IL-17A/A (Homo sapiens, UniProt Q16552)
T1 construct: purchased Genscript Z03228
T1 sequence (Q16552 24-155): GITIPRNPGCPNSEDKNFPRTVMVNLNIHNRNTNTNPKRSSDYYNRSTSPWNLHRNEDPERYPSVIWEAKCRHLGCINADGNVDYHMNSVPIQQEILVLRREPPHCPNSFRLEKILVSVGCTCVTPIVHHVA
Assay: HEK-Blue IL-17A/A inhibition assay (SEAP reporter)
Type: cell-based
Conditions: HEK-Blue cells (HEK 293 expressing IL-17RA, IL-17RC, Act1); IL-17A/A stimulation; 20 hours; SEAP read at A630; 4-parameter fit
Outline: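 HEK 293 cells engineered with IL-17RA, IL-17RC and Act1 (NFκB-driven SEAP) given titrated compound (top final 10, 1 or 0.3 uM; 0.1% DMSO) just before IL-17A/A, then incubated 20 h. SEAP in media developed with Quanti-Blue, read at A630; IC50 by 4-parameter nonlinear fit.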

| Compound | IC50 [nM] |
| --- | --- |
| CC(C)n1nccc1C(=O)N[C@H](C(=O)Nc1cc(CCN(C)C)c([C@H](C)C(=O)NCC(F)(F)F)cc1F)C(C1CC1)C1CC1 [Compound 166, N-((S)-1,1-dicyclopropyl-3-((5-(2-(dimethylamino)ethyl)-2-fluoro-4-((S)-1-oxo-1-((2,2,2-trifluoroethyl)amino)propan-2-yl)phenyl)amino)-3-oxopropan-2-yl)-1-isopropyl-1H-pyrazole-5-carboxamide] | 100 to 1000 |
| CCn1nccc1C(=O)N[C@H](C(=O)Nc1c(F)cc(C(C)C(=O)NCC(F)(F)F)cc1F)C(C1CC1)C1CC1 (single isomer, unassigned) [Compound 171] | 100 to 1000 |
| CCn1nccc1C(=O)N[C@H](C(=O)Nc1cc(C)c(C(C)C(=O)N(C)CC(F)(F)F)cc1F)C1CCC(F)(F)CC1 (some centres unmarked) [Compound 218] | < 100 |
| CC(C)n1nccc1C(=O)N[C@H](C(=O)Nc1ccc([C@H](C)C(=O)NC(C(N)=O)C(F)(F)F)cc1F)C(C1CC1)C1CC1 (stereo partly drawn) [Compound 63, N-((2S)-1-((4-((2S)-1-((3-amino-1,1-trifluoro-3-oxopropan-2-yl)amino)-1-oxopropan-2-yl)-2-fluorophenyl)amino)-3,3-dicyclopropyl-1-oxopropan-2-yl)-1-isopropyl-1H-pyrazole-5-carboxamide] | < 100 |
| CC(C)n1nccc1C(=O)N[C@H](C(=O)Nc1ccc([C@H](C)C(=O)NCC(F)(F)F)cc1F)C(C1CC1)C1CC1 [Compound 82, N-((S)-1,1-dicyclopropyl-3-((2-fluoro-4-((S)-1-oxo-1-((2,2,2-trifluoroethyl)amino)propan-2-yl)phenyl)amino)-3-oxopropan-2-yl)-1-isopropyl-1H-pyrazole-5-carboxamide] | < 100 |
| CCOC(=O)Nc1cc(NC(=O)[C@@H](NC(=O)c2ccnn2C(C)C)C(C2CC2)C2CC2)c(F)cc1C(C)C(=O)NCC(F)(F)F (some centres unmarked) [Compound 255] | > 1000 |
| CC(C(=O)NCC(F)(F)F)c1cc(F)c(NC(=O)[C@@H](NC(=O)c2ccnn2C)C(C2CC2)C2CC2)cc1OC(F)(F)F (some centres unmarked) [Compound 247] | > 1000 |
| CCn1nccc1C(=O)N[C@H](C(=O)Nc1cc(C)c(C(C)C(=O)N(C)CC(F)(F)F)cc1F)C(C1CC1)C1CC1 (single isomer, unassigned) [Compound 76] | < 100 |
| CC(C(=O)NCC(F)(F)F)c1cc(F)c(NC(=O)[C@@H](NC(=O)c2ccnn2C(C)C)C(C2CC2)C2CC2)cc1Nc1ccccn1 (single isomer, unassigned) [Compound 262] | > 1000 |
| CCc1nonc1C(=O)N[C@H](C(=O)Nc1cc(C)c(C(C)C(=O)NCC(F)(F)F)cc1F)C1CCC(F)(F)CC1 (some centres unmarked) [Compound 224] | 100 to 1000 |
| CC(C(=O)NCC(F)(F)F)c1cc(F)c(NC(=O)[C@@H](NC(=O)c2ccnn2C(C)C)C2CCC(F)(F)CC2)cc1OC(F)(F)F (single isomer, unassigned) [Compound 219] | 100 to 1000 |
| CC(C)C(C(=O)NCC(F)(F)F)c1ccc(NC(=O)[C@@H](NC(=O)c2ccnn2C(C)C)C(C2CC2)C2CC2)c(F)c1 (single isomer, unassigned) [Compound 128] | 100 to 1000 |
| CCn1nccc1C(=O)N[C@H](C(=O)Nc1cc(OC(F)(F)F)c(C(C)C(=O)N(C)CC(F)(F)F)cc1F)C(C1CC1)C1CC1 (some centres unmarked) [Compound 253] | < 100 |
| N-((S)-1,1-dicyclopropyl-3-((2-fluoro-4-((S)-1-oxo-1-(3-(trifluoromethyl)azetidin-1-yl)propan-2-yl)phenyl)amino)-3-oxopropan-2-yl)-1-ethyl-1H-pyrazole-5-carboxamide [Compound 14] | 100 to 1000 |
| COc1cc(NC(=O)[C@@H](NC(=O)c2ccnn2C(C)C)C(C2CC2)C2CC2)c(F)cc1C(C)C(=O)N1CC(O)CC1C(F)(F)F (single isomer, unassigned) [Compound 183] | > 1000 |
| CCn1nccc1C(=O)N[C@H](C(=O)Nc1cc(OC)c(C(C)C(=O)N(C)CC(F)(F)F)cc1F)C(C1CC1)C1CC1 (some centres unmarked) [Compound 174] | < 100 |

The next lines start with the values.

| IC50 [nM] | Compound |
| --- | --- |
| > 1000 | CC(C)n1nccc1C(=O)N[C@H](C(=O)Nc1ccc([C@H](C)C(=O)NC2CC2)cc1F)C(C1CC1)C1CC1 [Compound 16, N-((S)-1,1-dicyclopropyl-3-((4-((S)-1-(cyclopropylamino)-1-oxopropan-2-yl)-2-fluorophenyl)amino)-3-oxopropan-2-yl)-1-isopropyl-1H-pyrazole-5-carboxamide] |
| 100 to 1000 | CCc1nonc1C(=O)N[C@H](C(=O)Nc1cc(C)c(C(C)C(=O)NCC(F)(F)F)cc1F)C(C1CC1)C1CC1 (some centres unmarked) [Compound 206] |
| 100 to 1000 | CC(C)n1nccc1C(=O)N[C@H](C(=O)Nc1ccc([C@H](C)C(=O)N2C[C@H](F)C[C@H]2C(F)(F)F)cc1F)C(C1CC1)C1CC1 [Compound 58, N-((S)-1,1-dicyclopropyl-3-((2-fluoro-4-((S)-1-((2S,4R)-4-fluoro-2-(trifluoromethyl)pyrrolidin-1-yl)-1-oxopropan-2-yl)phenyl)amino)-3-oxopropan-2-yl)-1-isopropyl-1H-pyrazole-5-carboxamide] |
| > 1000 | CC(C)n1nccc1C(=O)N[C@H](C(=O)Nc1ccc([C@H](C)C(=O)NCC(N(C)C)C(F)(F)F)cc1F)C(C1CC1)C1CC1 (stereo partly drawn) [Compound 32, N-((2S)-1.1-dicyclopropyl-3-((4-((2S)-1-((2-(dimethylamino)-3,3,3-trifluoropropyl)amino)-1-oxopropan-2-yl)-2-fluorophenyl)amino)-3-oxopropan-2-yl)-1-isopropyl-1H-pyrazole-5-carboxamide] |
| 100 to 1000 | CC[C@@H](c1ccc(Cl)cc1)[C@H](NC(=O)c1ccnn1CC)C(=O)Nc1ccc([C@H](C)C(=O)N(C)CC(F)(F)F)cc1F [Compound 72, N-((2S,3S)-3-(4-chlorophenyl)-1-((2-fluoro-4-((S)-1-(methyl(2,2,2-trifluoroethyl)amino)-1-oxopropan-2-yl)phenyl)amino)-1-oxopentan-2-yl)-1-ethyl-1H-pyrazole-5-carboxamide] |
| > 1000 | CC(C)n1nccc1C(=O)N[C@H](C(=O)Nc1ccc(C(C(=O)NCC(F)(F)F)N2CCOCC2)cc1F)C(C1CC1)C1CC1 (single isomer, unassigned) [Compound 140] |
| 100 to 1000 | CC(C(=O)NC1CCC1(F)F)c1cc(F)c(NC(=O)[C@@H](NC(=O)c2ccnn2C(C)C)C(C2CC2)C2CC2)cc1C(F)(F)F (single isomer, unassigned) [Compound 231] |
| < 100 | CC(C(=O)N(C)CC(F)(F)F)c1cc(F)c(NC(=O)[C@@H](NC(=O)c2ccnn2C(C)C)C(C2CC2)C2CC2)cc1OC(F)(F)F (some centres unmarked) [Compound 257] |
| < 100 | CC(C)n1nccc1C(=O)N[C@H](C(=O)Nc1ccc([C@H](C)C(=O)N2CC(O)CC2C(F)(F)F)cc1F)C(C1CC1)C1CC1 (single isomer, unassigned) [Compound 142] |
| 100 to 1000 | CCn1nccc1C(=O)N[C@H](C(=O)Nc1ccc(C(C)(C)C(=O)NCC(F)(F)F)cc1F)C1CCCCCC1 [Compound 7, (S)-N-(1-cycloheptyl-2-((2-fluoro-4-(2-methyl-1-oxo-1-((2,2,2-trifluoroethyl)amino)propan-2-yl)phenyl)amino)-2-oxoethyl)-1-ethyl-1H-pyrazole-5-carboxamide] |
| 100 to 1000 | CNCc1cc(NC(=O)[C@@H](NC(=O)c2ccnn2C(C)C)C(C2CC2)C2CC2)c(F)cc1C(C)C(=O)NCC(F)(F)F (some centres unmarked) [Compound 226] |
| 100 to 1000 | CC(C)n1nccc1C(=O)N[C@H](C(=O)Nc1ccc([C@H](C)C(=O)NC(CO)C(F)(F)F)cc1F)C(C1CC1)C1CC1 (single isomer, unassigned) [Compound 28] |
| 100 to 1000 | CC(C(=O)NCC(F)(F)F)c1cc(F)c(NC(=O)[C@@H](NC(=O)c2ccnn2C(C)C)C(C2CC2)C2CC2)cc1NC(=O)OCCN (some centres unmarked) [Compound 256] |

From US20240376056A1, “PHENYL ACETAMIDE BASED IL-17A MODULATORS AND USES THEREOF” (DiCE Alpha, Inc., priority 2021, published 2024)
